This is an account of results in PubChem BioAssay AID228 (DTP/NCI, 2004).

The test system of the experiment is BDF1 mice, Friend leukemia sc, tumor weight T/C. As to the kind of experiment: NCI In Vivo Anticancer Drug Screen. Data for tumor model Friend Virus Leukemia (Solid) (subcutaneous) in B6D2F1 (BDF1) mice. Conditions: endpoint: mean tumor weight, higher = larger tumour. On the procedure:
The antitumor activity of compounds was measured in mice bearing transplantable tumors. Survival or tumor size were measured and the results are expressed as the measurement made in the treated group (T) divided by the measurement made in the vehicle treated control group (C). The tumor model used in this assay is Friend Virus Leukemia (Solid) (subcutaneous) in B6D2F1 (BDF1) mice

The mark [1] stands for this setting: dose: 7.5 mg/kg/injection, schedule: Q01DX011 (ip), vehicle: carboxymethylcellulose (CMC).
[2] abbreviates: dose: 15.0 mg/kg/injection, schedule: Q01DX011 (ip), vehicle: carboxymethylcellulose (CMC).
Where [3] appears, read: dose: 30.0 mg/kg/injection, schedule: Q01DX011 (ip), vehicle: carboxymethylcellulose (CMC).
[4] abbreviates: dose: 9.0 mg/kg/injection, schedule: Q01DX011 (ip), vehicle: carboxymethylcellulose (CMC).
Where [5] appears, read: dose: 2.0 mg/kg/injection, schedule: Q01DX011 (ip), vehicle: carboxymethylcellulose (CMC).
[6] abbreviates: dose: 4.0 mg/kg/injection, schedule: Q01DX011 (ip), vehicle: carboxymethylcellulose (CMC).
Setting [7] is: dose: 62.0 mg/kg/injection, schedule: Q01DX011 (ip), vehicle: carboxymethylcellulose (CMC).
The mark [8] stands for this setting: dose: 125.0 mg/kg/injection, schedule: Q01DX011 (ip), vehicle: carboxymethylcellulose (CMC).
Setting [9] is: dose: 3.12 mg/kg/injection, schedule: Q01DX011 (ip), vehicle: carboxymethylcellulose (CMC).
The mark [10] stands for this setting: dose: 6.25 mg/kg/injection, schedule: Q01DX011 (ip), vehicle: carboxymethylcellulose (CMC).
Where [11] appears, read: dose: 25.0 mg/kg/injection, schedule: Q01DX011 (ip), vehicle: carboxymethylcellulose (CMC).
Where [12] appears, read: dose: 50.0 mg/kg/injection, schedule: Q01DX011 (ip), vehicle: carboxymethylcellulose (CMC).
[13] abbreviates: dose: 5.0 mg/kg/injection, schedule: Q01DX011 (ip), vehicle: carboxymethylcellulose (CMC).

SMILES strings stand for the structures. Values joined by “and” are separate entries in the source; they are usually repeats but may differ in a detail not shown here. Equal entries are not always repeated. Records with an inconclusive call do not appear.

On to `CCC(=O)O[C@H]1CC[C@H]2[C@@H]3CCC4=CC(=O)CC[C@]4(C)[C@H]3CC[C@]12C`, for which the T/C is 84 % of control (dose: 1.0 mg/kg/injection, schedule: Q01DX011 (sc), vehicle: steriod suspending solution); 104 % of control (dose: 5.0 mg/kg/injection, schedule: Q01DX011 (sc), vehicle: steriod suspending solution); 96 % of control (dose: 10.0 mg/kg/injection, schedule: Q01DX011 (sc), vehicle: steriod suspending solution); 81 % of control (dose: 20.0 mg/kg/injection, schedule: Q01DX011 (sc), vehicle: steriod suspending solution); 89 % of control (dose: 40.0 mg/kg/injection, schedule: Q01DX011 (sc), vehicle: steriod suspending solution); 76 % of control (dose: 80.0 mg/kg/injection, schedule: Q01DX011 (sc), vehicle: steriod suspending solution). The T/C reads like this: (dose: 125.0 mg/kg/injection, schedule: Q01DX011 (sc), vehicle: steriod suspending solution) 199 % of control; (dose: 200.0 mg/kg/injection, schedule: Q01DX011 (sc), vehicle: steriod suspending solution) 158 % of control; (dose: 250.0 mg/kg/injection, schedule: Q01DX011 (sc), vehicle: steriod suspending solution) 207 % of control; (dose: 300.0 mg/kg/injection, schedule: Q01DX011 (sc), vehicle: steriod suspending solution) 94 % of control; (dose: 400.0 mg/kg/injection, schedule: Q01DX011 (sc), vehicle: steriod suspending solution) 185 % of control and 201 % of control; (dose: 500.0 mg/kg/injection, schedule: Q01DX011 (sc), vehicle: steriod suspending solution) 171 % of control and 191 % of control and 257 % of control.
With `Cc1ccc(N2CCN(CCCN3CCN(c4ccc(Cl)cc4)CC3)CC2)cc1`, the T/C was 80 % of control under setting [1]; 61 % of control under setting [2]; 55 % of control and 50 % of control under setting [3]; 49 % of control (dose: 60.0 mg/kg/injection, schedule: Q01DX011 (ip), vehicle: carboxymethylcellulose (CMC)).
Consider `c1ccc(CNc2ncnc3[nH]ncc23)cc1`, for which the T/C is 109 % of control (dose: 1.12 mg/kg/injection, schedule: Q01DX011 (ip), vehicle: carboxymethylcellulose (CMC)); 77 % of control (dose: 2.25 mg/kg/injection, schedule: Q01DX011 (ip), vehicle: carboxymethylcellulose (CMC)); 78 % of control (dose: 4.5 mg/kg/injection, schedule: Q01DX011 (ip), vehicle: carboxymethylcellulose (CMC)); 117 % of control under setting [4]; 15 % of control (dose: 18.5 mg/kg/injection, schedule: Q01DX011 (ip), vehicle: carboxymethylcellulose (CMC)).
Regarding `CCC[CH2][Sn]([CH2]CCC)([CH2]CCC)[O]C(=O)CC[S][Sn]([CH2]CCC)([CH2]CCC)[CH2]CCC`, the T/C by setting is: under setting [5], 108 % of control; under setting [6], 82 % of control.
Regarding `C[N+](C)(C)c1ncnc2nc[nH]c12`, the T/C was 106 % of control (dose: 31.0 mg/kg/injection, schedule: Q01DX011 (ip), vehicle: carboxymethylcellulose (CMC)); 43 % of control under setting [7]; 47 % of control under setting [8].
With `CCC1/C=C/C=C/CC(C)C(O)C(C)(O)C(=O)C(C)C(O)C(C)C(=O)C(C)C(O)C(C)/C=C/C(=O)OC2C(C)C(CC1)OC1(OC(CC(C)O)C(C)CC1=O)C2C` (centres undefined) (tested in a mixture with another compound), the T/C is 54 % of control (dose: 1.56 mg/kg/injection, schedule: Q01DX011 (ip), vehicle: carboxymethylcellulose (CMC)); 64 % of control under setting [9]; 46 % of control under setting [10].
For the compound `CSc1ncc(Br)c(Sc2nc(N)nc3nc[nH]c23)n1`, the T/C under setting [9] is 92 % of control; the T/C under setting [10] is 81 % of control; the T/C (dose: 12.5 mg/kg/injection, schedule: Q01DX011 (ip), vehicle: carboxymethylcellulose (CMC)) is 51 % of control.
Consider `CSc1ncnc2c1ncn2C1OC(CO)C(O)C1O` (centres undefined), for which the T/C (dose: 6.0 mg/kg/injection, schedule: Q01DX011 (ip), vehicle: saline) is 105 % of control; the T/C (dose: 9.0 mg/kg/injection, schedule: Q01DX011 (ip), vehicle: saline) was 121 % of control; the T/C (dose: 12.5 mg/kg/injection, schedule: Q01DX011 (ip), vehicle: saline) was 99 % of control; the T/C (dose: 15.0 mg/kg/injection, schedule: Q01DX011 (ip), vehicle: saline) is 112 % of control.
`CCn1cnc2c(SC)nc(N)nc21`: the T/C is, setting by setting: under setting [11], 83 % of control; under setting [12], 73 % of control; (dose: 100.0 mg/kg/injection, schedule: Q01DX011 (ip), vehicle: carboxymethylcellulose (CMC)) 23 % of control.
Consider `O=C(O)CCc1c[nH]c2ccc(N(CCCl)CCCl)cc12`, for which the T/C reads like this: (dose: 1.2 mg/kg/injection, schedule: Q01DX011 (ip), vehicle: carboxymethylcellulose (CMC)) 107 % of control; (dose: 2.5 mg/kg/injection, schedule: Q01DX011 (ip), vehicle: carboxymethylcellulose (CMC)) 92 % of control; under setting [13], 114 % of control.
With `Nc1nc(N)c(N=O)c(Nc2ccc(Cl)c(Cl)c2)n1`, the T/C is 153 % of control (dose: 3.75 mg/kg/injection, schedule: Q01DX011 (ip), vehicle: carboxymethylcellulose (CMC)); 69 % of control under setting [1]; 109 % of control under setting [2]; 91 % of control under setting [3].
With `CCN(CC)CC(C)Nc1ccc(C)c2sc3ccccc3c(=O)c12` (centres undefined), the T/C by setting is: under setting [11], 103 % of control; under setting [12], 60 % of control.
On to `NC(Cc1ccc(N(CCCl)CCCl)cc1)C(=O)O` (centres undefined), for which the T/C (dose: 0.32 mg/kg/injection, schedule: Q01DX011 (ip), vehicle: carboxymethylcellulose (CMC)) is 101 % of control; the T/C (dose: 0.64 mg/kg/injection, schedule: Q01DX011 (ip), vehicle: carboxymethylcellulose (CMC)) was 87 % of control; the T/C (dose: 1.0 mg/kg/injection, schedule: Q01DX011 (ip), vehicle: carboxymethylcellulose (CMC)) was 65 % of control; the T/C (dose: 1.28 mg/kg/injection, schedule: Q01DX011 (ip), vehicle: carboxymethylcellulose (CMC)) is 101 % of control; the T/C under setting [5] was 60 % of control; the T/C (dose: 2.56 mg/kg/injection, schedule: Q01DX011 (ip), vehicle: carboxymethylcellulose (CMC)) was 70 % of control. Moreover, the T/C (dose: 3.0 mg/kg/injection, schedule: Q01DX011 (ip), vehicle: carboxymethylcellulose (CMC)) was 57 % of control; the T/C under setting [6] is 32 % of control; the T/C under setting [13] was 36 % of control; the T/C (dose: 6.0 mg/kg/injection, schedule: Q01DX011 (ip), vehicle: carboxymethylcellulose (CMC)) was 13 % of control; the T/C (dose: 8.0 mg/kg/injection, schedule: Q01DX011 (ip), vehicle: carboxymethylcellulose (CMC)) was 7 % of control.
`O=[As]O`: the T/C runs as follows: (dose: 1.6 mg/kg/injection, schedule: Q01DX011 (ip), vehicle: carboxymethylcellulose (CMC)) 78 % of control; (dose: 3.25 mg/kg/injection, schedule: Q01DX011 (ip), vehicle: carboxymethylcellulose (CMC)) 77 % of control; (dose: 6.5 mg/kg/injection, schedule: Q01DX011 (ip), vehicle: carboxymethylcellulose (CMC)) 98 % of control; (dose: 13.0 mg/kg/injection, schedule: Q01DX011 (ip), vehicle: carboxymethylcellulose (CMC)) 46 % of control.
With `OCCc1ccccc1`, the T/C reads like this: under setting [7], 83 % of control; under setting [8], 63 % of control; (dose: 250.0 mg/kg/injection, schedule: Q01DX011 (ip), vehicle: carboxymethylcellulose (CMC)) 57 % of control; (dose: 500.0 mg/kg/injection, schedule: Q01DX011 (ip), vehicle: carboxymethylcellulose (CMC)) 51 % of control.
Turning to `N=[N+]=CC(=O)OCC(N)C(=O)O` (centres undefined), the T/C is, setting by setting: (dose: 0.38 mg/kg/injection, schedule: Q01DX011 (ip), vehicle: carboxymethylcellulose (CMC)) 49 % of control; (dose: 0.75 mg/kg/injection, schedule: Q01DX011 (ip), vehicle: carboxymethylcellulose (CMC)) 37 % of control; (dose: 1.5 mg/kg/injection, schedule: Q01DX011 (ip), vehicle: carboxymethylcellulose (CMC)) 39 % of control and 44 % of control; (dose: 1.8 mg/kg/injection, schedule: Q01DX011 (ip), vehicle: carboxymethylcellulose (CMC)) 108 % of control; under setting [4], 33 % of control; (dose: 12.0 mg/kg/injection, schedule: Q01DX011 (ip), vehicle: carboxymethylcellulose (CMC)) 22 % of control and 44 % of control. Moreover, under setting [2], the T/C is 29 % of control.
